From patent US20260201008A1, “SECRETIN-DERIVED GLP1R SELECTIVE AGONISTS” (GUBRA A/S, priority 2023, published 2026)
Read-outs that look alike come from different tables or passages of the source. Numbered stars: 1 amine (or outer) side, 2 acyl side, 3 side chain; on linkers, the order of the positions; unused ones are H or OH. Square brackets hold non-standard residues; d marks the D form. Side chains are listed from the residue outwards. Peptide text beside a SMILES is read from it. * marks the point of attachment. C20 diacid = O=C(O)CCCCCCCCCCCCCCCCCCC(=O)*; γGlu = O=C(O)[C@H](CCC(=O)[*:2])N[*:1]; AEEA = NCCOCCOCC(=O)O; Aib = CC(C)(N)C(=O)O

Columns and labels:
[1] = Turbidity of crude library peptides (absorbance at 600 nm); type: physicochemical; settings: Physical stability of peptides
Summary of the method: (§1)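 Turbidity is the absorbance at 600 nm, taken before heating. Fibril signal is the mean ThT emission at 480 nm (450 nm excitation), read every 10 min over 72 h at 40° C with 700 rpm shaking between reads. Peptides at 267 μM, pH 4.0 acetate or pH 7.0 phosphate buffer (50 mM), 4 μM ThT final.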

[2] = Fibril formation of crude library peptides (Thioflavin T); type: physicochemical; set-up: key: average ThT fluorescence emission at 480 nm (ex 450 nm), raw units; settings: Physical stability of peptides
Summary of the method: as §1

GLP1R = GLP1R (Homo sapiens, UniProt P43220); assay: hGLP1R potency, cAMP accumulation in CHO-K1 cells stably overexpressing hGLP1R; type: cell-based; set-up: host or cells: CHO-K1; settings: for EC50: cAMP accumulation, CHO-K1 cells overexpressing hGLP1R; for SCTR EC50/GLP1R EC50 ratio: selectivity for hGLP1R over hSCTR, cAMP accumulation in CHO-K1 cells; for Selectivity: SCTR EC50/GLP1R EC50 ratio
Sequence of GLP1R (P43220 24-463): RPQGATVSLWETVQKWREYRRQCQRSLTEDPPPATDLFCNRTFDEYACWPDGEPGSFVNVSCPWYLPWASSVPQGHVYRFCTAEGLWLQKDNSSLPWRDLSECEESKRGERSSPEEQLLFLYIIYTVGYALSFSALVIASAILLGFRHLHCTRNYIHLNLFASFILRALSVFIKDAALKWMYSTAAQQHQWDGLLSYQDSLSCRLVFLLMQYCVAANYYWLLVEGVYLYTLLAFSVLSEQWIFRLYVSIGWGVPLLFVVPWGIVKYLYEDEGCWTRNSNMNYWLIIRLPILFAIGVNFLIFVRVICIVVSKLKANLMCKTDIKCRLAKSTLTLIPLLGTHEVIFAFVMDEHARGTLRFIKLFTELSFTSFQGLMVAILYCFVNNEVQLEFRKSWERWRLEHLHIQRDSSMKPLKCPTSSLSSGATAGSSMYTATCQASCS
Summary of the method: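 EC50 derives from variable-slope nonlinear regression of cAMP HTRF signal, with purified peptides tested as 11 three-fold dilutions in duplicate. Assay: hGLP1R-overexpressing CHO-K1 cells, 0.5 mM IBMX, 0.05% casein in DPBS, 30 min room-temperature stimulation, GLP-1(7-36) as reference agonist.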

SCTR = SCTR (Homo sapiens, UniProt P47872); assay: hSCTR potency, cAMP accumulation in CHO-K1 cells stably overexpressing hSCTR; type: cell-based; set-up: alternatively Euroscreen ES-712-AF; FAST-0161L; host or cells: CHO-K1; settings: cAMP accumulation, CHO-K1 cells overexpressing hSCTR
Sequence of SCTR (P47872 23-440): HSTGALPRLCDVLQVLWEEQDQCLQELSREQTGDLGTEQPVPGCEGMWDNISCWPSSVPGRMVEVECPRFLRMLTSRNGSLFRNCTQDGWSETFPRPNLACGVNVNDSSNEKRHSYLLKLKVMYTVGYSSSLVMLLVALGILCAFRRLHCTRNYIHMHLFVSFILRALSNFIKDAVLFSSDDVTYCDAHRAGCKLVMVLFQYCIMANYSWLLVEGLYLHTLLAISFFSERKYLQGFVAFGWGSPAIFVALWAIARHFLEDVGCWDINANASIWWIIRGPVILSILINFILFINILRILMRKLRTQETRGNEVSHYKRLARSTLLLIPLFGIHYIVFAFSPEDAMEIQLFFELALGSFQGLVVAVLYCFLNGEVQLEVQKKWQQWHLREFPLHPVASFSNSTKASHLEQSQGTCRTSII
Summary of the method: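 EC50 derived from variable-slope nonlinear regression on 11-point, 3-fold series run in duplicate (crude peptides: 5 points, 10-fold, n=1). Compound stimulation lasted 30 min at room temperature in casein/IBMX-containing DPBS (0.05%, 0.5 mM), 2000 cells/well; cAMP detected by time-resolved FRET after one hour.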

[3] = read-out: hGLP1R pEC50 (converted)
[4] = read-out: hSCTR pEC50 (converted)
[5] = read-out: pEC50 hGLPR1 (converted)
[6] = read-out: pEC50 hSCTR (converted)

Compound | Turbidity (pH 7) [1] | Fibril formation [2] | EC50 (GLP1R; [3]) [nM] | SCTR EC50/GLP1R EC50 ratio (GLP1R) | EC50 (SCTR; [4]) [nM] | Selectivity (GLP1R) | EC50 (GLP1R; [5]) [nM] | EC50 (SCTR; [6]) [nM]
CC[C@H](C)[C@H](NC(=O)[C@H](CC(=O)O)NC(=O)[C@H](CO)NC(=O)[C@@H](NC(=O)[C@H](Cc1ccccc1)NC(=O)[C@@H](NC(=O)CNC(=O)[C@H](CCC(=O)O)NC(=O)C(C)(C)NC(=O)[C@@H](N)Cc1c[nH]cn1)[C@@H](C)O)[C@@H](C)O)C(=O)N[C@@H](CO)C(=O)NCC(=O)N[C@@H](CC(C)C)C(=O)N[C@@H](CC(C)C)C(=O)N[C@@H](CCC(=O)O)C(=O)NCC(=O)N[C@@H](C)C(=O)N[C@@H](C)C(=O)N[C@@H](CC(C)C)C(=O)N[C@@H](CCC(N)=O)C(=O)N[C@@H](CCCNC(=N)N)C(=O)N[C@@H](Cc1ccccc1)C(=O)N[C@H](C(=O)N[C@@H](CCC(N)=O)C(=O)N[C@@H](Cc1c[nH]c2ccccc12)C(=O)N[C@@H](CC(C)C)C(=O)N[C@H](C(N)=O)C(C)C)[C@@H](C)CC [compound 120] (H-H[Aib]EGTFTSDISGLLEGAALQRFIQWLV-NH2) | 0.23 | 4449 | 0.0501 | 3717 | 200 |  |  | 
CC[C@H](C)[C@H](NC(=O)[C@H](Cc1ccccc1)NC(=O)[C@H](CCCNC(=N)N)NC(=O)[C@H](CCC(N)=O)NC(=O)[C@H](CC(C)C)NC(=O)[C@H](C)NC(=O)[C@H](C)NC(=O)CNC(=O)[C@H](CCC(=O)O)NC(=O)[C@H](CC(C)C)NC(=O)[C@H](CC(C)C)NC(=O)[C@H](Cc1ccccc1)NC(=O)[C@H](CO)NC(=O)[C@@H](NC(=O)[C@H](CC(=O)O)NC(=O)[C@H](CO)NC(=O)[C@@H](NC(=O)[C@H](Cc1ccccc1)NC(=O)[C@@H](NC(=O)CNC(=O)[C@H](CCC(=O)O)NC(=O)C(C)(C)NC(=O)[C@@H](N)Cc1c[nH]cn1)[C@@H](C)O)[C@@H](C)O)[C@@H](C)CC)C(=O)N[C@@H](CCC(N)=O)C(=O)N[C@@H](Cc1c[nH]c2ccccc12)C(=O)N[C@@H](CC(C)C)C(=O)N[C@H](C(N)=O)C(C)C [compound 117] (H-H[Aib]EGTFTSDISFLLEGAALQRFIQWLV-NH2) | 0.50 | 238242 | 0.01 | 19436 | 200 |  |  | 
CC[C@H](C)[C@H](NC(=O)[C@H](Cc1ccccc1)NC(=O)[C@H](CCCNC(=N)N)NC(=O)[C@H](CCC(N)=O)NC(=O)[C@H](CC(C)C)NC(=O)[C@H](C)NC(=O)[C@H](C)NC(=O)CNC(=O)[C@H](CCC(=O)O)NC(=O)[C@H](CC(C)C)NC(=O)[C@H](CC(C)C)NC(=O)[C@H](CCC(=O)O)NC(=O)[C@H](CO)NC(=O)[C@@H](NC(=O)[C@H](CC(=O)O)NC(=O)[C@H](CO)NC(=O)[C@@H](NC(=O)[C@H](Cc1ccccc1)NC(=O)[C@@H](NC(=O)CNC(=O)[C@H](CCC(=O)O)NC(=O)C(C)(C)NC(=O)[C@@H](N)Cc1c[nH]cn1)[C@@H](C)O)[C@@H](C)O)C(C)C)C(=O)N[C@@H](CCC(N)=O)C(=O)N[C@@H](Cc1c[nH]c2ccccc12)C(=O)N[C@@H](CC(C)C)C(=O)N[C@H](C(N)=O)C(C)C [compound 180] (H-H[Aib]EGTFTSDVSELLEGAALQRFIQWLV-NH2) | 0.12 | 53478 | 0.0158 | 11144 | 200 |  |  | 
CC(C)C[C@H](NC(=O)[C@H](Cc1ccccc1)NC(=O)[C@H](CCCNC(=N)N)NC(=O)[C@H](CCC(N)=O)NC(=O)[C@@H](NC(=O)[C@H](C)NC(=O)[C@H](C)NC(=O)[C@@H](NC(=O)[C@H](CCC(=O)O)NC(=O)[C@H](CCCCNC(=O)COCCOCCNC(=O)COCCOCCNC(=O)CC[C@H](NC(=O)CCCCCCCCCCCCCCCCCCC(=O)O)C(=O)O)NC(=O)[C@H](CC(C)C)NC(=O)[C@H](Cc1ccccc1)NC(=O)[C@H](CO)NC(=O)[C@@H](NC(=O)[C@H](CC(=O)O)NC(=O)[C@H](CO)NC(=O)[C@@H](NC(=O)[C@H](Cc1ccccc1)NC(=O)[C@@H](NC(=O)CNC(=O)[C@H](CCC(=O)O)NC(=O)C(C)(C)NC(=O)[C@@H](N)Cc1c[nH]cn1)[C@@H](C)O)[C@@H](C)O)C(C)C)[C@@H](C)O)[C@@H](C)O)C(=O)N[C@@H](CCC(=O)O)C(=O)N[C@@H](Cc1c[nH]cn1)C(=O)N[C@@H](CC(C)C)C(=O)N[C@H](C(N)=O)C(C)C [compound 70] (H-H[Aib]EGTFTSDVSFLK([AEEA-AEEA-γGlu-C20 diacid])ETAATQRFLEHLV-NH2) | 0.11 | 99118 |  |  |  | 4095 | 0.02 | 100
CC(C)C[C@H](NC(=O)[C@H](Cc1ccccc1)NC(=O)[C@H](CCCNC(=N)N)NC(=O)[C@H](CCC(N)=O)NC(=O)[C@H](CO)NC(=O)[C@H](C)NC(=O)[C@H](C)NC(=O)C(C)(C)NC(=O)[C@H](CCC(=O)O)NC(=O)[C@H](CCCCNC(=O)COCCOCCNC(=O)COCCOCCNC(=O)CC[C@H](NC(=O)CCCCCCCCCCCCCCCCCCC(=O)O)C(=O)O)NC(=O)[C@H](CC(C)C)NC(=O)[C@H](CCCNC(=N)N)NC(=O)[C@H](CO)NC(=O)[C@@H](NC(=O)[C@H](CC(=O)O)NC(=O)[C@H](CO)NC(=O)[C@@H](NC(=O)[C@H](Cc1ccccc1)NC(=O)[C@@H](NC(=O)CNC(=O)[C@H](CCC(=O)O)NC(=O)C(C)(C)NC(=O)[C@@H](N)Cc1c[nH]cn1)[C@@H](C)O)[C@@H](C)O)C(C)C)C(=O)N[C@@H](CCC(=O)O)C(=O)N[C@@H](Cc1c[nH]cn1)C(=O)N[C@@H](CC(C)C)C(=O)N[C@H](C(N)=O)C(C)C [compound 59] (H-H[Aib]EGTFTSDVSRLK([AEEA-AEEA-γGlu-C20 diacid])E[Aib]AASQRFLEHLV-NH2) | 0.09 | 13939 |  |  |  | 4314 | 0.0316 | 126
CC(C)C[C@H](NC(=O)[C@H](Cc1ccccc1)NC(=O)[C@H](CCCNC(=N)N)NC(=O)[C@H](CCC(N)=O)NC(=O)[C@H](C)NC(=O)[C@H](C)NC(=O)[C@H](C)NC(=O)C(C)(C)NC(=O)[C@H](CCC(=O)O)NC(=O)[C@H](CCCCNC(=O)COCCOCCNC(=O)COCCOCCNC(=O)CC[C@H](NC(=O)CCCCCCCCCCCCCCCCCCC(=O)O)C(=O)O)NC(=O)[C@H](CC(C)C)NC(=O)[C@@H](NC(=O)[C@H](CO)NC(=O)[C@@H](NC(=O)[C@H](CC(=O)O)NC(=O)[C@H](CO)NC(=O)[C@@H](NC(=O)[C@H](Cc1ccccc1)NC(=O)[C@@H](NC(=O)CNC(=O)[C@H](CCC(=O)O)NC(=O)C(C)(C)NC(=O)[C@@H](N)Cc1c[nH]cn1)[C@@H](C)O)[C@@H](C)O)C(C)C)C(C)C)C(=O)N[C@@H](CCC(=O)O)C(=O)N[C@@H](Cc1c[nH]cn1)C(=O)N[C@@H](CC(C)C)C(=O)N[C@H](C(N)=O)C(C)C [compound 15] (H-H[Aib]EGTFTSDVSVLK([AEEA-AEEA-γGlu-C20 diacid])E[Aib]AAAQRFLEHLV-NH2) | 0.09 | 12385 |  |  |  | 3961 | 0.0794 | 316
CC(C)C[C@H](NC(=O)[C@H](Cc1ccccc1)NC(=O)[C@H](CCCNC(=N)N)NC(=O)[C@H](CCC(N)=O)NC(=O)C(C)(C)NC(=O)[C@H](C)NC(=O)[C@H](C)NC(=O)[C@H](CCC(=O)O)NC(=O)[C@H](CCC(=O)O)NC(=O)[C@H](CCCCNC(=O)COCCOCCNC(=O)COCCOCCNC(=O)CC[C@H](NC(=O)CCCCCCCCCCCCCCCCCCC(=O)O)C(=O)O)NC(=O)[C@H](CC(C)C)NC(=O)[C@H](CCC(=O)O)NC(=O)[C@H](CO)NC(=O)[C@@H](NC(=O)[C@H](CC(=O)O)NC(=O)[C@H](CO)NC(=O)[C@@H](NC(=O)[C@H](Cc1ccccc1)NC(=O)[C@@H](NC(=O)CNC(=O)[C@H](CCC(=O)O)NC(=O)C(C)(C)NC(=O)[C@@H](N)Cc1c[nH]cn1)[C@@H](C)O)[C@@H](C)O)C(C)C)C(=O)N[C@@H](CCC(=O)O)C(=O)N[C@@H](Cc1c[nH]cn1)C(=O)N[C@@H](CC(C)C)C(=O)N[C@H](C(N)=O)C(C)C [compound 97] (H-H[Aib]EGTFTSDVSELK([AEEA-AEEA-γGlu-C20 diacid])EEAA[Aib]QRFLEHLV-NH2) | 0.09 | 10277 | 0.01 | 145949 | 1580 |  |  | 
